Results: PMC6315749 (Marine Drugs, 2018)

Assays:
[1] = target: Aplysia californica AChBP (Aplysia californica, UniProt Q8WSF8); assay: biochemical; type: binding
rat α9α10 nAChR = settings: cited from earlier work

Aplysia californica AChBP, sequence (Q8WSF8 18-236 limits assumed): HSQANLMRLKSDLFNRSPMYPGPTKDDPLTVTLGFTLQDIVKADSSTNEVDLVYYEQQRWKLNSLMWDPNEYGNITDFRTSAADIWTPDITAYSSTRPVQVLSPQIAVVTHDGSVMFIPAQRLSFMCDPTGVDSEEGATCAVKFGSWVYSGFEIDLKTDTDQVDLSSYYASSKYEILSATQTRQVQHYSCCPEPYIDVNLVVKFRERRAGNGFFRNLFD

Row | Compound | IC50 [1] [nM] | affinity for rat α9α10 nAChRs (rat α9α10 nAChR)
1 | N=C(N)NCCC[C@H](NC(=O)[C@@H]1CSSC[C@@H]2NC(=O)[C@@H](NC(=O)CN)CSSC[C@H](NC(=O)[C@H](CCCNC(=N)N)NC(=O)[C@@H]3CCCN3C(=O)[C@H](CC(=O)O)NC(=O)[C@H](CO)NC2=O)C(=O)N[C@@H](CCCNC(=N)N)C(=O)N[C@@H](Cc2ccc(O)cc2)C(=O)N[C@@H](CCCNC(=N)N)C(=O)N1)C(=O)O [RgIA globular isomer] | 194 ± 14 | 
2 | N=C(N)NCCC[C@H](NC(=O)[C@@H]1CSSC[C@H](NC(=O)CN)C(=O)N[C@H]2CSSC[C@H](NC(=O)[C@H](CCCNC(=N)N)NC(=O)[C@@H]3CCCN3C(=O)[C@H](CC(=O)O)NC(=O)[C@H](CO)NC2=O)C(=O)N[C@@H](CCCNC(=N)N)C(=O)N[C@@H](Cc2ccc(O)cc2)C(=O)N[C@@H](CCCNC(=N)N)C(=O)N1)C(=O)O [RgIA ribbon isomer] | 1000 ± 80 | 
3 | Vc1.1 |  | nanomolar
